From patent publication US20080125432A1 (Devgen NV, priority 2004, published 2008)

Row | Structure (SMILES) | melting point
1 | Cc1nc(NC(=O)c2ccc(C(N)=O)cc2)sc1C(=O)N[C@H]1CCC[C@@H]1OCc1ccccc1 [Compound 213, N-[5-((1S,2S)-2-benzyloxy-cyclopentylcarbamoyl)-4-methyl-thiazol-2-yl]-terephthalamide] | 213.8 to 218.9 °C
2 | COc1ccccc1Nc1nc(C)c(C(=O)NCc2cccc(C)c2)s1 [Compound 141, 2-(2-methoxy-phenylamino)-4-methyl-thiazole-5-carboxylic acid 3-methyl-benzylamide] | 148.1 to 149.9 °C
3 | COc1ccccc1Nc1nc(C)c(C(=O)N2CCC(Cc3ccccc3)CC2)s1 [Compound 174, (4-benzyl-piperidin-1-yl)-[2-(2-methoxy-phenylamino)-4-methyl-thiazol-5-yl]-methanone] | 166.8 to 169.2 °C
4 | COc1ccccc1Nc1nc(C)c(C(=O)NCc2cccc(-c3ccccc3)c2)s1 [Compound 144, 2-(2-methoxy-phenylamino)-4-methyl-thiazole-5-carboxylic acid (biphenyl-3-ylmethyl)-amide] | 126.6 to 128.3 °C
5 | CC[C@@H](NC(=O)c1sc(Nc2ccccc2OC)nc1C)c1ccccc1 [Compound 131, 2-(2-methoxy-phenylamino)-4-methyl-thiazole-5-carboxylic acid ((R)-1-phenyl-propyl)-amide] | 57.7 to 59.6 °C
6 | COc1ccccc1Nc1nc(C)c(C(=O)N2CCCC2c2ccccc2)s1 (stereo not shown) [Compound 176, [2-(2-methoxy-phenylamino)-4-methyl-thiazol-5-yl]-(2-phenyl-pyrrolidin-1-yl)-methanone] | 113.5 to 117.6 °C
7 | COc1ccccc1Nc1nc(C)c(C(=O)Cc2ccccc2)s1 [Compound 79, 1-[2-(2-methoxy-phenylamino)-4-methyl-thiazol-5-yl]-2-phenyl-ethanone] | 131.7 to 140.6 °C
8 | Cc1nc(Nc2ccc(N3CCOCC3)cc2)sc1C(=O)N[C@H]1CCC[C@@H]1OCc1ccccc1 [Compound 92, 4-methyl-2-(4-morpholin-4-yl-phenylamino)-thiazole-5-carboxylic acid ((1S,2S)-2-benzyloxycyclopent-1-yl) amide] | 192.5 to 194.9 °C
9 | COc1ccccc1N(C)c1nc(C)c(C(=O)N[C@H](CO)c2ccccc2)s1 [Compound 150, 2-[(2-methoxy-phenyl)-methyl-amino]-4-methyl-thiazole-5-carboxylic acid ((S)-2-hydroxy-1-phenyl-ethyl)-amide] | 119.4 °C
10 | COc1ccccc1Nc1nc(C)c(C(=O)N[C@@H](C(=O)O)c2ccccc2)s1 [Compound 212, (R)-{[2-(2-methoxy-phenylamino)-4-methyl-thiazole-5-carbonyl]-amino}-phenyl-aceticacid] | 258.6 to 262.9 °C
11 | COc1ccc(CNC(=O)c2sc(Nc3ccccc3OC)nc2C)cc1 [Compound 218, 2-(2-methoxy-phenylamino)-4-methyl-thiazole-5-carboxylic acid 4-methoxybenzylamide] | 143.9 to 144.8 °C
12 | COc1ccccc1Nc1nc(C)c(C(=O)N2CCC(c3ccc(C)cc3)CC2)s1 [Compound 168, [2-(2-methoxy-phenylamino)-4-methyl-thiazol-5-yl]-[4-p-tolyl-piperidin-1-yl]-methanone] | 187.7 to 191.5 °C
13 | COc1ccccc1N(C(C)=O)c1nc(C)c(C(=O)N[C@H]2CCC[C@@H]2OCc2ccccc2)s1 [Compound 129, 2-[acetyl-(2-methoxy-phenyl)-amino]-4-methyl-thiazole-5-carboxylic acid ((1S,2S)-2-benzyloxycyclopent-1-yl) amide] | 145.8 to 149 °C
14 | COc1ccccc1Nc1nc(C)c(C(=O)NCC2COc3ccccc3O2)s1 (stereo not shown) [Compound 217, 2-(2-methoxy-phenylamino)-4-methyl-thiazole-5-carboxylic acid (2,3-dihydro-benzo[1,4]dioxin-2-ylmethyl) amide] | 138.3 to 158.2 °C
15 | COc1ccccc1Nc1nc(C)c(C(=O)N2CC=C(c3ccc(F)cc3)CC2)s1 [Compound 163, [4-(4-fluoro-phenyl)-3,6-dihydro-2H-pyridin-1-yl]-[2-(2-methoxy-phenylamino)-4-methyl-thiazol-5-yl]-methanone] | 144.4 to 149.2 °C
16 | COc1ccccc1Nc1nc(C)c(C(=O)NCc2ccc(C(=O)N(C)C)cc2)s1 [Compound 137, 2-(2-methoxy-phenylamino)-4-methyl-thiazole-5-carboxylic acid 4-dimethylcarbamoyl-benzylamide] | 219.1 to 226.7 °C
17 | COc1cccc(Nc2nc(C)c(C(=O)N[C@H]3CCC[C@@H]3OCc3ccccc3)s2)c1 [Compound 133, 2-(3-methoxy-phenylamino)-4-methyl-thiazole-5-carboxylic acid ((1S,2S)-2-benzyloxycyclopent-1-yl) amide] | 152.8 to 155.9 °C
18 | COc1ccccc1Nc1nc(C)c(C(=O)NC2CCN(Cc3ccccc3)C2)s1 (stereo not shown) [Compound 215, 2-(2-methoxy-phenylamino)-4-methyl-thiazole-5-carboxylic acid (1-benzyl-pyrrolidin-3-yl) amide] | 112.6 to 121.6 °C
19 | CC[C@H](NC(=O)c1sc(Nc2ccccc2OC)nc1C)c1ccccc1 [Compound 132, 2-(2-methoxy-phenylamino)-4-methyl-thiazole-5-carboxylic acid ((S)-1-phenyl-propyl)-amide] | 66.5 to 70.4 °C

The remaining lines, values ahead:

Row | melting point | Structure (SMILES)
20 | 133.5 to 135.7 °C | COC(=O)[C@@H](NC(=O)c1sc(Nc2ccccc2OC)nc1C)c1ccccc1 [Compound 152, (S)-{[2-(2-methoxy-phenylamino)-4-methyl-thiazole-5-carbonyl]-amino}-phenyl-aceticacid methyl ester]
21 | 118.3 to 121.7 °C | COc1ccccc1Nc1nc(C)c(C(=O)NCc2ccccc2C)s1 [Compound 140, 2-(2-methoxy-phenylamino)-4-methyl-thiazole-5-carboxylic acid 2-methyl-benzylamide]
22 | 96.1 to 100.3 °C | COc1ccccc1Nc1nc(C)c(C(=O)NCc2cccc(OC(F)(F)F)c2)s1 [Compound 158, 2-(2-methoxy-phenylamino)-4-methyl-thiazole-5-carboxylic acid 3-trifluoromethoxy-benzylamide]
23 | 211.3 to 214.4 °C | COc1ccccc1Nc1nc(C)c(C(=O)Nc2ccc(Cn3cccn3)cc2)s1 [Compound 166, 2-(2-methoxy-phenylamino)-4-methyl-thiazole-5-carboxylic acid (4-pyrazol-1-ylmethyl-phenyl)-amide]
24 | 97.4 to 110.6 °C | Cc1nc(NC(=O)c2ccccc2)sc1C(=O)N[C@H]1CCC[C@@H]1OCc1ccccc1 [Compound 179, 2-benzoylamino-4-methyl-thiazole-5-carboxylic acid ((1S,2S)-2-benzyloxycyclopent-1-yl) amide]
25 | 131.4 to 137.9 °C | COC(=O)[C@H](NC(=O)c1sc(Nc2ccccc2OC)nc1C)c1ccccc1 [Compound 151, (R)-{[2-(2-methoxy-phenylamino)-4-methyl-thiazole-5-carbonyl]-amino}-phenyl-aceticacid methyl ester]
26 | 159.6 to 164 °C | COc1ccccc1Nc1nc(C)c(C(=O)NCc2ccccc2Br)s1 [Compound 146, 2-(2-methoxy-phenylamino)-4-methyl-thiazole-5-carboxylic acid 2-bromo-benzylamide]
27 | 128.4 to 132 °C | COc1ccccc1Nc1nc(C)c(C(=O)NCc2ccccc2-c2ccccc2)s1 [Compound 143, 2-(2-methoxy-phenylamino)-4-methyl-thiazole-5-carboxylic acid (biphenyl-2-ylmethyl)-amide]
28 | 60.3 to 62.4 °C | COc1ccccc1Nc1nc(C)c(C(=O)NC(C)c2ccccc2)s1 (stereo not shown) [Compound 130, 2-(2-methoxy-phenylamino)-4-methyl-thiazole-5-carboxylic acid (1-phenyl-ethyl)-amide]
29 | 94.4 to 106.6 °C | COc1ccccc1Nc1nc(C)c(C(=O)N2CCCC2c2ccc(F)cc2)s1 (stereo not shown) [Compound 177, [2-(4-fluoro-phenyl)-pyrrolidin-1-yl]-[2-(2-methoxy-phenylamino)-4-methyl-thiazol-5-yl]-methanone]
30 | 166 to 167.4 °C | COc1ccccc1Nc1nc(C)c(C(=O)NCc2ccc3c(c2)OCO3)s1 [Compound 162, 2-(2-methoxy-phenylamino)-4-methyl-thiazole-5-carboxylic acid (benzo[1,3]dioxol-5-ylmethyl)-amide]
31 | 167.2 to 170 °C | COc1ccccc1Nc1nc(C)c(C(=O)N(Cc2ccccc2)c2ccccc2)s1 [Compound 216, 2-(2-methoxy-phenylamino)-4-methyl-thiazole-5-carboxylic acid benzyl-phenyl-amide]
32 | 68.7 to 82.4 °C | COc1ccc(CNC(=O)c2oc(Nc3ccccc3OC)nc2C)c(OC)c1 [Compound 222, 2-(2-methoxy-phenylamino)-4-methyl-oxazole-5-carboxylic acid 2,4-dimethoxy-benzylamide]
33 | 125.9 to 130.2 °C | COc1ccccc1Nc1nc(C)c(C(=O)NCc2ccccc2)o1 [Compound 221, 2-(2-methoxy-phenylamino)-4-methyl-oxazole-5-carboxylic acid benzylamide]
34 | 118.8 to 129.6 °C | COC[C@@H](NC(=O)c1sc(Nc2ccccc2OC)nc1C)c1ccccc1 [Compound 149, 2-(2-methoxy-phenylamino)-4-methyl-thiazole-5-carboxylic acid ((S)-2-methoxy-1-phenyl-ethyl)-amide]
35 | 189.6 to 191.2 °C | COc1ccccc1Nc1nc(C)c(C(=O)NCc2ccc(-c3ccccc3)cc2)s1 [Compound 145, 2-(2-methoxy-phenylamino)-4-methyl-thiazole-5-carboxylic acid (biphenyl-4-ylmethyl)-amide]
36 | 92.6 to 99.6 °C | COc1ccccc1Nc1nc(C)c(C(=O)N2CCC(C(=O)c3ccc(F)cc3)CC2)s1 [Compound 175, [4-(4-fluoro-benzoyl)-piperidin-1-yl]-[2-(2-methoxy-phenylamino)-4-methyl-thiazol-5-yl]-methanone]
37 | 93.4 to 95.8 °C | Cc1nc(Oc2ccccc2)sc1C(=O)N[C@H]1CCC[C@@H]1OCc1ccccc1 [Compound 80, 4-methyl-2-phenoxy-thiazole-5-carboxylicacid ((1S,2S)-2-benzyloxycyclopent-1-yl)amide]
